Measurements as given in ChEMBL document CHEMBL4346657, “Anticancer activity, dual prooxidant/antioxidant effect and apoptosis induction profile of new bichalcophene-5-carboxamidines” (Eur J Med Chem, 2019).

Tests used:
[1] = system: SNB-19; assay: Antiproliferative activity against human SNB19 cells assessed as growth inhibition after 48 hrs by sulforhodamine B assay; format: functional; details: SNB-19, 48 h
[2] = system: A498; assay: Antiproliferative activity against human A498 cells assessed as growth inhibition after 48 hrs by sulforhodamine B assay; format: functional; details: A498, 48 h
[3] = system: CCRF-CEM; assay: Antiproliferative activity against human CCRF-CEM cells assessed as growth inhibition after 48 hrs by sulforhodamine B assay; format: functional
[4] = system: SR; assay: Antiproliferative activity against human SR cells assessed as growth inhibition after 48 hrs by sulforhodamine B assay; format: functional
[5] = system: IGROV-1; assay: Antiproliferative activity against human IGROV1 cells assessed as growth inhibition after 48 hrs by sulforhodamine B assay; format: functional; details: IGROV-1, 48 h
[6] = system: KM12; assay: Antiproliferative activity against human KM12 cells assessed as growth inhibition after 48 hrs by sulforhodamine B assay; format: functional; details: KM12, 48 h
[7] = system: HCC 2998; assay: Antiproliferative activity against human HCC2998 cells assessed as growth inhibition after 48 hrs by sulforhodamine B assay; format: functional; details: HCC 2998, 48 h
[8] = system: HT-29; assay: Antiproliferative activity against human HT-29 cells assessed as growth inhibition after 48 hrs by sulforhodamine B assay; format: functional; details: HT-29, 48 h
[9] = system: WI-38; assay: Cytotoxicity activity against human WI38 cells assessed as reduction in cell viability measured after 48 hrs by MTT assay; format: cell-based; details: WI-38, 48 h
[10] = system: SF-295; assay: Antiproliferative activity against human SF295 cells assessed as growth inhibition after 48 hrs by sulforhodamine B assay; format: functional; details: SF-295, 48 h
[11] = system: SK-MEL-28; assay: Antiproliferative activity against human SK-MEL-28 cells assessed as growth inhibition after 48 hrs by sulforhodamine B assay; format: functional; details: SK-MEL-28, 48 h
[12] = system: HCT-116; assay: Antiproliferative activity against human HCT116 cells assessed as growth inhibition after 48 hrs by sulforhodamine B assay; format: functional; details: HCT-116, 48 h
[13] = system: NCI-H522; assay: Antiproliferative activity against human NCI-H522 cells assessed as growth inhibition after 48 hrs by sulforhodamine B assay; format: functional; details: NCI-H522, 48 h
[14] = system: K562; assay: Antiproliferative activity against human K562 cells assessed as growth inhibition after 48 hrs by sulforhodamine B assay; format: functional, cell-based; details: K562, 48 h, read-out: IC50
[15] = Selectivity index, ratio of IC50 for human WI38 cells to GI50 for human NCI60 cells
[16] = system: NCI/ADR-RES; assay: Antiproliferative activity against human NCI-ADR-RES cells assessed as growth inhibition after 48 hrs by sulforhodamine B assay; format: functional
[17] = system: M14; assay: Antiproliferative activity against human M14 cells assessed as growth inhibition after 48 hrs by sulforhodamine B assay; format: functional; details: M14, 48 h
[18] = system: HCT-116; assay: Induction of apoptosis in human HCT116 cells assessed as increase in caspase 9 mRNA expression at 100 nM after 6 hrs hrs by SYBR green dye-based qRT-PCR analysis relative to control; format: functional
[19] = system: U-251; assay: Antiproliferative activity against human U251 cells assessed as growth inhibition after 48 hrs by sulforhodamine B assay; format: functional; details: U-251, 48 h
[20] = system: SK-MEL-2; assay: Antiproliferative activity against human SK-MEL-2 cells assessed as growth inhibition after 48 hrs by sulforhodamine B assay; format: functional; details: SK-MEL-2, 48 h
[21] = Antioxidant activity assessed as DPPH radical scavenging activity incubated in dark for 30 mins by spectrophotometric method relative to ascorbic acid; format: functional
[22] = system: NCI-H322M; assay: Antiproliferative activity against human NCI-H322M cells assessed as growth inhibition after 48 hrs by sulforhodamine B assay; format: functional
[23] = system: HL-60(TB); assay: Antiproliferative activity against human HL-60(TB) cells assessed as growth inhibition after 48 hrs by sulforhodamine B assay; format: functional; details: HL-60, 48 h
[24] = Haemolytic activity in human erythrocytes assessed as induction of hemolysis at 2.5 mM after 30 mins relative to H202; format: cell-based, Erythrocyte; details: erythrocytes, read-out: Activity
[25] = system: UACC-62; assay: Antiproliferative activity against human UACC62 cells assessed as growth inhibition after 48 hrs by sulforhodamine B assay; format: functional; details: UACC-62, 48 h
[26] = Antioxidant activity assessed as ABTS radical scavenging activity by spectrophotometric method relative to ascorbic acid; format: functional
[27] = system: Erythrocyte; assay: Haemolytic activity in human erythrocytes assessed as induction of hemolysis at 1.25 mM after 30 mins relative to H202; format: cell-based; details: erythrocyte, 0.5 h, 1250 µM
[28] = system: SK-MEL-5; assay: Antiproliferative activity against human SK-MEL-5 cells assessed as growth inhibition after 48 hrs by sulforhodamine B assay; format: functional; details: SK-MEL-5, 48 h
[29] = system: T47D; assay: Antiproliferative activity against human T47D cells assessed as growth inhibition after 48 hrs by sulforhodamine B assay; format: functional
[30] = system: Erythrocyte; assay: Haemolytic activity in human erythrocytes assessed as induction of hemolysis at 0.625 mM after 30 mins relative to H202; format: cell-based; details: erythrocyte, 0.5 h, 625 µM
[31] = system: RPMI-8226; assay: Antiproliferative activity against human RPMI8226 cells assessed as growth inhibition after 48 hrs by sulforhodamine B assay; format: functional; details: RPMI-8226, 48 h
[32] = system: ACHN; assay: Antiproliferative activity against human ACHN cells assessed as growth inhibition after 48 hrs by sulforhodamine B assay; format: functional
[33] = system: Hs-578T; assay: Antiproliferative activity against human Hs578T cells assessed as growth inhibition after 48 hrs by sulforhodamine B assay; format: functional
[34] = system: SW-620; assay: Antiproliferative activity against human SW620 cells assessed as growth inhibition after 48 hrs by sulforhodamine B assay; format: functional; details: SW-620, 48 h
[35] = system: NCI-H226; assay: Antiproliferative activity against human NCI-H226 cells assessed as growth inhibition after 48 hrs by sulforhodamine B assay; format: functional; details: NCI-H226, 48 h
[36] = system: Panel NCI-60 (60 carcinoma cell lines); assay: Antiproliferative activity against human NCI60 cells assessed as growth inhibition at 10 uM after 48 hrs by sulforhodamine B assay; format: functional; details: read-out: GI

Compound | GI50 [1] | GI50 [2] | GI50 [3] | GI50 [4] | GI50 [5] | GI50 [6] | GI50 [7] | GI50 [8] | IC50 [9] | GI50 [10] | GI50 [11] | GI50 [12] | GI50 [13] | IC50 [14] | Selectivity Index [15] | GI50 [16] | GI50 [17] | fold change (FC) [18] | GI50 [19] | GI50 [20] | also measured
N=C(N)c1ccc(-c2ccc(-c3ccc(F)cc3)s2)s1 | 1970 nM | 1950 nM | 1850 nM | 1170 nM | 1730 nM | 1710 nM | 1730 nM | 1530 nM | 13300 nM | 1610 nM | 1730 nM | 1730 nM | 1820 nM | 1210 nM | 7.5 | 1790 nM | 1890 nM | 3.89 | 1800 nM | 1810 nM | fold change (FC) [21]: 0.5; GI50 [22]: 1630 nM; GI50 [23]: 1400 nM; hemolysis at 0.5 h, 2500 µM [24]: 14%; GI50 [25]: 1940 nM; fold change (FC) [26]: 0.5; Activity [27]: Non-Toxic; GI50 [28]: 1810 nM; GI50 [29]: 1740 nM; Activity [30]: Non-Toxic; GI50 [31]: 2100 nM; GI50 [32]: 1710 nM; GI50 [33]: 2190 nM; GI50 [34]: 1740 nM; GI50 [35]: 1420 nM; inhibition of growth at 10 µM [36]: -25.8%
COc1ccc(-c2ccc(-c3ccc(C(=N)N)o3)o2)cc1 | 1990 nM | 1760 nM | 1840 nM | 420 nM | 1730 nM | 590 nM | 1580 nM | 480 nM | 72900 nM | 1680 nM | 1670 nM | 1070 nM | 1090 nM | 490 nM | 41.8 | 1880 nM | 1470 nM | 2.31 | 1740 nM | 5710 nM | fold change (FC) [21]: 0.7; GI50 [22]: 2260 nM; GI50 [23]: 1230 nM; hemolysis at 0.5 h, 2500 µM [24]: 8.1%; GI50 [25]: 1290 nM; fold change (FC) [26]: 0.7; Activity [27]: Non-Toxic; GI50 [28]: 2800 nM; GI50 [29]: 1530 nM; Activity [30]: Non-Toxic; GI50 [31]: 2680 nM; GI50 [32]: 1800 nM; GI50 [33]: 4330 nM; GI50 [34]: 530 nM; GI50 [35]: 22000 nM; inhibition of growth at 10 µM [36]: 86.4%
